US20260365627A1, “NOVEL ECTONUCLEOTIDE PYROPHOSPHATASE / PHOSPHODIESTERASE 1 (ENPP-1) INHIBITORS AND USES THEREOF” (SRAVATHI AI TECHNOLOGY PRIVATE LIMITED, priority 2022, published 2026)

Target: T1, Human ENPP-1 (Homo sapiens, UniProt P22413)
T1 sequence (P22413 1-925): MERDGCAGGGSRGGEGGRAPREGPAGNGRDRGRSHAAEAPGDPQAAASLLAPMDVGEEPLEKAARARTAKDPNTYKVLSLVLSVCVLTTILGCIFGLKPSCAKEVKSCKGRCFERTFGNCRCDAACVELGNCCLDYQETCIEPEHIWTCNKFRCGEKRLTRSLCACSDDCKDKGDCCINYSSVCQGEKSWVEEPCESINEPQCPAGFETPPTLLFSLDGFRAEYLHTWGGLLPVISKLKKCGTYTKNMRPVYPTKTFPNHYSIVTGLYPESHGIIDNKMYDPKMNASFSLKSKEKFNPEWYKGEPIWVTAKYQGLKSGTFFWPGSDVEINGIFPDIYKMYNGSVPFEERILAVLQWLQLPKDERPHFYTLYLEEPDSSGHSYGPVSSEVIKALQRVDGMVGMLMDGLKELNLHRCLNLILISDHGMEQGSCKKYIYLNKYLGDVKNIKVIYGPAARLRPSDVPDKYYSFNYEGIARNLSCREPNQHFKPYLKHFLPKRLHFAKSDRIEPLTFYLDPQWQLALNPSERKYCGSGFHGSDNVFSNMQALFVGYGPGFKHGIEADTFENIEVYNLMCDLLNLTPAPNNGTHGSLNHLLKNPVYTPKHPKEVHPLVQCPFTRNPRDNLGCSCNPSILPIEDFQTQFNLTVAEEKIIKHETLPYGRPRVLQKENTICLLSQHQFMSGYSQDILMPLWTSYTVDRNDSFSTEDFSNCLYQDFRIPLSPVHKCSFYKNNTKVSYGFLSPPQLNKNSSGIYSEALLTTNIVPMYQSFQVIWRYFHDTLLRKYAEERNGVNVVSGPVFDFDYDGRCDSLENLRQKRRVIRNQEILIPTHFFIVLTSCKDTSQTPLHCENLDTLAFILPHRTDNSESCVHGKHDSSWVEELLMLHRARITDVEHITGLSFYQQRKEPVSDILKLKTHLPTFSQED
Experiment: ENPP-1 Inhibition Assay (cGAMP substrate, AMP Glo luminescence)
Assay type: biochemical
Settings: Human ENPP-1 3 nM, 5 μM cGAMP, pH 7.4, 40 μM HSA, RT 3 hrs; read-out: IC50 values of compounds of the invention, 0.1-1 uM
Method: Assay method: Human ENPP-1 at 3 nM prepared in pH 7.4 was incubated with 5 μM cGAMP substrate with the test samples prepared in buffer with pH 7.4 along with 40 μM HSA. The reaction was incubated at RT for 3 hrs. Post incubation, the reaction was stopped by heating the contents at 95 °C for 10 mins. 10 μl of the solution was added to 384-well plate to which 10 μl of AMP Glo reagent-1 was added and incubated for 60 mins at 25 °C. After the incubation, 20 μl of AMP detection solution was added to each well with the enzyme reaction and incubated for 60 mins at 25 °C. The luminescence signal (RLU) was recorded using SpectraMax I3X plate reader.
The luminescence signal is measured as a function of concentration of the inhibitor. If the inhibitor molecule is active, as the concentration of the inhibitor increases, the luminescence value (referred to as OD) decreases. % Inhibition is then calculated as
% Inhibition=((OD of Control−OD of sample)/OD of Control)×100
In this disclosure, the IC50 value of an inhibitor molecule is measured as the concentration of inhibitor which inhibits growth of 50% of the human ENPP-1. A graph of inhibitor concentration on X-axis vs. percentage inhibition on Y-axis is drawn and the […] is measured as the IC50 value.

IC50 | SMILES
0.1 to 1 µM | COc1cc2ncnc(N=S(C)(=O)c3ccc(NC(N)=S)cc3)c2cc1OC (stereo not drawn) [SAPTI012S007]
0.1 to 1 µM | COc1cc2ncnc(N=S(=O)(c3cccc(NC(N)=O)c3)C3CC3)c2cc1OC (stereo not drawn) [SAPTI012S032]
0.1 to 1 µM | COc1cc2ncnc(N=S(C)(=O)c3ccc(C(=O)O)cc3)c2cc1OC (stereo not drawn) [SAPTI012S014]
0.1 to 1 µM | COc1cc2ncnc(N=S(=O)(c3ccccc3)c3ccc(NC(N)=O)cc3)c2cc1OC (stereo not drawn) [SAPTI012S034]
0.1 to 1 µM | COc1cc2ncnc(N=S(C)(=O)c3ccc(CCP(=O)(O)O)cc3)c2cc1OC (stereo not drawn) [SAPTI012S025]
0.1 to 1 µM | COc1cc2ncnc(N=S(C)(=O)c3cccc(NS(N)(=O)=O)c3)c2cc1OC (stereo not drawn) [SAPTI012S010]
0.1 to 1 µM | COc1cc2ncnc(N=S(C)(=O)c3cccc(C(N)=O)c3)c2cc1OC (stereo not drawn) [SAPTI012S022]
0.1 to 1 µM | COc1cccc2c(N=S(C)(=O)c3ccc(B(O)O)cc3)ncnc12 (stereo not drawn) [SAPTI012S035]
0.1 to 1 µM | COc1cc2ncnc(N=S(C)(=O)c3cccc(N(C)C(N)=O)c3)c2cc1OC (stereo not drawn) [SAPTI012S012]

Same assay, conditions: Human ENPP-1 3 nM, 5 μM cGAMP, pH 7.4, 40 μM HSA, RT 3 hrs; read-out: IC50 values of compounds of the invention, 1-10 uM

IC50 | SMILES
1 to 10 µM | COc1cc2ncnc(N=S(C)(=O)c3ccc(P(=O)(O)O)cc3)c2cc1OC (stereo not drawn) [SAPTI012S001]
1 to 10 µM | COc1cccc2ncnc(N=S(C)(=O)c3ccc(B(O)O)cc3)c12 (stereo not drawn) [SAPTI012S039]
1 to 10 µM | Cn1ccc2c(N=S(C)(=O)c3ccc(C(N)=O)cc3)ncnc21 (stereo not drawn) [SAPTI012S019]
1 to 10 µM | COc1cccc2c(N=S(C)(=O)c3cccc(N(C)C(N)=O)c3)ncnc12 (stereo not drawn) [SAPTI012S013]
1 to 10 µM | COc1cc2ncnc(N=S(C)(=O)c3cccc(P(=O)(O)O)c3)c2cc1OC (stereo not drawn) [SAPTI012S002]
1 to 10 µM | COc1cccc2c(N=S(C)(=O)c3ccc(C(N)=O)cc3)ccnc12 (stereo not drawn) [SAPTI012S020]
1 to 10 µM | COc1cc2ncnc(N=S(C)(=O)c3ccc(F)c(B(O)O)c3)c2cc1OC (stereo not drawn) [SAPTI012S043]
1 to 10 µM | COc1cc2nccc(N=S(C)(=O)c3ccc(C(N)=O)cc3)c2cc1OC (stereo not drawn) [SAPTI012S018]

Same assay, conditions: Human ENPP-1 3 nM, 5 μM cGAMP, pH 7.4, 40 μM HSA, RT 3 hrs; read-out: IC50 values of compounds of the invention, <100 nM

IC50 | SMILES
< 0.1 µM | COc1cc2ncnc(N=S(C)(=O)c3cccc(C(=O)O)c3)c2cc1OC (stereo not drawn) [SAPTI012S021]
< 0.1 µM | COc1cc2ncnc(N=S(=O)(c3cccc(NC(N)=O)c3)C3CCCC3)c2cc1OC (stereo not drawn) [SAPTI012S030]
< 0.1 µM | COc1nccc2c(N=S(C)(=O)c3ccc(B(O)O)cc3)ncnc12 (stereo not drawn) [SAPTI012S040]
< 0.1 µM | COc1cc2ncnc(N=S(C)(=O)c3cccc(B(O)O)c3)c2cc1OC (stereo not drawn) [SAPTI012S005]
< 0.1 µM | COc1cc2nccc(N=S(C)(=O)c3ccc(B(O)O)cc3)c2cc1OC (stereo not drawn) [SAPTI012S036]
< 0.1 µM | COc1cc2ncnc(N=S(C)(=O)c3ccc(B(O)O)cc3)c2cc1OC (racemic) [SAPTI012S006]
< 0.1 µM | COc1cc2ncnc(N=S(C)(=O)c3cccc4c(NC(N)=O)cccc34)c2cc1OC (stereo not drawn) [SAPTI012S029]
< 0.1 µM | COc1cc2ncnc(N=S(C)(=O)c3cccc4c(P(=O)(O)O)cccc34)c2cc1OC (stereo not drawn) [SAPTI012S028]
< 0.1 µM | COc1cc2ncnc(N=S(=O)(c3ccc(P(=O)(O)O)cc3)C(C)C)c2cc1OC (stereo not drawn) [SAPTI012S031]
< 0.1 µM | COc1cc2ncnc(N=S(C)(=O)c3ccc(C(N)=O)cc3)c2cc1OC (stereo not drawn) [SAPTI012S016]
< 0.1 µM | COc1cc2ncnc(N=S(C)(=O)c3ccc(CC(N)=O)cc3)c2cc1OC (stereo not drawn) [SAPTI012S042]
< 0.1 µM | COc1cc2ncnc(N=S(C)(=O)c3cccc(NC(N)=O)c3)c2cc1OC (stereo not drawn) [SAPTI012S011]
< 0.1 µM | COc1cc2ncnc(N=S(C)(=O)c3cccc(CNC(N)=O)c3)c2cc1OC (stereo not drawn) [SAPTI012S024]
< 0.1 µM | COc1cc2ncnc(N=S(C)(=O)c3ccc(NC(=O)Nc4ccccc4)cc3)c2cc1OC (stereo not drawn) [SAPTI012S009]
< 0.1 µM | COc1cc2ncnc(N=S(C)(=O)c3ccc(S(C)(=N)=O)cc3)c2cc1OC (stereo not drawn) [SAPTI012S008]
< 0.1 µM | COc1cc2ncnc(N=S(C)(=O)c3ccc(CNC(N)=O)cc3)c2cc1OC (stereo not drawn) [SAPTI012S015]

Same assay, conditions: Human ENPP-1 3 nM, 5 μM cGAMP, pH 7.4, 40 μM HSA, RT 3 hrs; read-out: IC50 values of compounds of the invention, >10 uM

IC50 | SMILES
> 10 µM | COc1cc2ncnc(N=S(=O)(CCCP(=O)(O)O)c3ccccc3)c2cc1OC (stereo not drawn) [SAPTI012S027]
> 10 µM | CS(=O)(=Nc1ncnc2ccc(F)cc12)c1ccc(B(O)O)cc1 (stereo not drawn) [SAPTI012S038]
> 10 µM | COc1cc2ncnc(N=S3(=O)CCC(C)(C)c4cc(P(=O)(O)O)ccc43)c2cc1OC (stereo not drawn) [SAPTI012S026]
> 10 µM | COc1cc2ncnc(N=S(=O)(c3cccc(NC(N)=O)c3)C(C)C)c2cc1OC (stereo not drawn) [SAPTI012S033]
> 10 µM | COc1cccc2c(N=S(C)(=O)c3ccc(C(N)=O)cc3)ncnc12 (stereo not drawn) [SAPTI012S017]
> 10 µM | COc1cc2ncnc(N=S(C)(=O)c3cccc(CN)c3)c2cc1OC (stereo not drawn) [SAPTI012S023]
> 10 µM | CS(=O)(=Nc1ncnc2ccccc12)c1ccc(B(O)O)cc1 (stereo not drawn) [SAPTI012S041]
> 10 µM | COc1cc2ncnc(N=S(C)(=O)c3ccc(NS(N)(=O)=O)cc3)c2cc1OC (stereo not drawn) [SAPTI012S003, N-{4-[N-(6,7-dimethoxyquinazoline-4-)-S-methanesulfonimidoyl]phenyl}sulfuric diamide]
> 10 µM | Cn1ccc2c(N=S(C)(=O)c3ccc(B(O)O)cc3)ncnc21 (stereo not drawn) [SAPTI012S037]

Same assay, conditions: racemate and enantiomers separated by chiral HPLC; Human ENPP-1 3 nM, 5 μM cGAMP, pH 7.4, 40 μM HSA; read-out: IC50 value range (enantiomers of SAPTI012S006)

IC50 | SMILES
> 0.1 µM | COc1cc2ncnc(N=S(C)(=O)c3ccc(B(O)O)cc3)c2cc1OC (single isomer, unassigned) [SAPTI012S006-E1]
< 0.1 µM | COc1cc2ncnc(N=S(C)(=O)c3ccc(B(O)O)cc3)c2cc1OC (racemic) [SAPTI012S006]
< 0.1 µM | COc1cc2ncnc(N=S(C)(=O)c3ccc(B(O)O)cc3)c2cc1OC (single isomer, unassigned) [SAPTI012S006-E2]
